The source of these data is paper PMC9889419 (Pharmacological Reports, 2022).

The term inhibition denotes the share of the control response that was lost under treatment.

Test in all cases: Radioligand binding
In one test the target is T1, M3 (Homo sapiens, UniProt P20309).
T1 construct: purchased Eurofins CEREP
The following applies: 100 μM.

Another test concerns the target T2, H1 (Homo sapiens, UniProt P35367).
T2 construct: purchased Eurofins CEREP
The following applies: 100 μM.

In another test the target is T3, CGRP (Homo sapiens, UniProt O60894+Q16602).
T3 construct: purchased Eurofins CEREP
The settings on record: 100 μM.

For a further test, the target named is T4, Y1 (Homo sapiens, UniProt P25929).
T4 construct: purchased Eurofins CEREP
The settings on record: 100 μM.

The next test has as its target T5, NK3 (Homo sapiens, UniProt P29371).
T5 construct: purchased Eurofins CEREP
The settings on record: 100 μM.

In a further test the target is T6, A2A (Homo sapiens, UniProt P29274).
T6 construct: purchased Eurofins CEREP
The following applies: 100 μM.

A further test deals with T7, Y2 (Homo sapiens, UniProt P49146).
T7 construct: purchased Eurofins CEREP
The settings on record: 100 μM.

The next test concerns the target T8, CCK2 (CCKB) (Homo sapiens, UniProt P32239).
T8 construct: purchased Eurofins CEREP
The following applies: 100 μM.

Another test concerns the target T9, NOP (ORL1) (Homo sapiens, UniProt P41146).
T9 construct: purchased Eurofins CEREP
The settings on record: 100 μM.

A further test concerns the target T10, MT1 (ML1A) (Homo sapiens, UniProt P48039).
T10 construct: purchased Eurofins CEREP
The following applies: 100 μM.

In a further test the target is T11, GAL2 (Homo sapiens, UniProt O43603).
T11 construct: purchased Eurofins CEREP
The following applies: 100 μM.

In the next test the target is T12, AT2 (Homo sapiens, UniProt P50052).
T12 construct: purchased Eurofins CEREP
The settings on record: 100 μM.

In another test the target is T13, 5-HT1B (Rattus norvegicus, UniProt P28564).
T13 construct: purchased Eurofins CEREP
The following applies: 100 μM.

The next test concerns the target T14, μ (MOP) (Homo sapiens, UniProt P35372).
T14 construct: purchased Eurofins CEREP
The following applies: 100 μM.

The next test has as its target T15, NK1 (Homo sapiens, UniProt P25103).
T15 construct: purchased Eurofins CEREP
The settings on record: 100 μM.

Another test addresses T16, CCK1 (CCKA) (Homo sapiens, UniProt P32238).
T16 construct: purchased Eurofins CEREP
The following applies: 100 μM.

The target of another test is T17, 5-HT5a (Homo sapiens, UniProt P47898).
T17 construct: purchased Eurofins CEREP
The settings on record: 100 μM.

In a further test the target is T18, ETB (Homo sapiens, UniProt P24530).
T18 construct: purchased Eurofins CEREP
The following applies: 100 μM.

In a further test the target is T19, 5-HT3 (Homo sapiens, UniProt P46098).
T19 construct: purchased Eurofins CEREP
The following applies: 100 μM.

For a further test, the system named is PDGF. The following applies: 100 μM.
A further test concerns the target T20, AT1 (Homo sapiens, UniProt P30556).
T20 construct: purchased Eurofins CEREP
The settings on record: 100 μM.

The target in another test is T21, IP (PGI2) (Homo sapiens, UniProt P43119).
T21 construct: purchased Eurofins CEREP
The settings on record: 100 μM.

A further test has as its target T22, CXCR2 (IL-8B) (Homo sapiens, UniProt P25025).
T22 construct: purchased Eurofins CEREP
The settings on record: 100 μM.

A further test deals with T23, A3 (Homo sapiens, UniProt P0DMS8).
T23 construct: purchased Eurofins CEREP
The settings on record: 100 μM.

The subject of the next test is sst (non-selective). The following applies: 100 μM.
The next test addresses T24, D5 (Homo sapiens, UniProt P21918).
T24 construct: purchased Eurofins CEREP
The following applies: 100 μM.

The next test concerns the target T25, V1a (Homo sapiens, UniProt P37288).
T25 construct: purchased Eurofins CEREP
The settings on record: 100 μM.

The next test has as its target T26, 5-HT6 (Homo sapiens, UniProt P50406).
T26 construct: purchased Eurofins CEREP
The following applies: 100 μM.

For the next test, the target named is T27, PPARγ (Homo sapiens, UniProt P37231).
T27 construct: purchased Eurofins CEREP
The settings on record: 100 μM.

In the next test the target is T28, D1 (Homo sapiens, UniProt P21728).
T28 construct: purchased Eurofins CEREP
The settings on record: 100 μM.

In another test the target is T29, GR (Homo sapiens, UniProt P04150).
T29 construct: purchased Eurofins CEREP
The settings on record: 100 μM.

The target in the next test is T30, NK2 (Homo sapiens, UniProt P21452).
T30 construct: purchased Eurofins CEREP
The settings on record: 100 μM.

The next test addresses T31, CCR1 (Homo sapiens, UniProt P32246).
T31 construct: purchased Eurofins CEREP
The settings on record: 100 μM.

The next test deals with T32, M2 (Homo sapiens, UniProt P08172).
T32 construct: purchased Eurofins CEREP
The settings on record: 100 μM.

In the next test the target is T33, CB1 (Homo sapiens, UniProt P21554).
T33 construct: purchased Eurofins CEREP
The following applies: 100 μM.

For a further test, the target named is T34, NTS1 (NT1) (Homo sapiens, UniProt P30989).
T34 construct: purchased Eurofins CEREP
The following applies: 100 μM.

Test [1] has as its target T35, norepinephrine transporter (Homo sapiens, UniProt P23975).
T35 construct: purchased Eurofins CEREP
The settings on record: 100 μM.

The next test deals with T36, Sigma 2 (Homo sapiens, UniProt Q5BJF2).
T36 construct: purchased Eurofins CEREP

The target of the next test is T37, Sigma 1 (Homo sapiens, UniProt Q99720).
T37 construct: purchased Eurofins CEREP

[2] abbreviates: read-out: % inhibition of specific control binding.
Where [3] appears, read: read-out: % of control specific binding.

Structures can show the parent of a compound that is named as a salt.

T36 sequence (Q5BJF2 whole entry): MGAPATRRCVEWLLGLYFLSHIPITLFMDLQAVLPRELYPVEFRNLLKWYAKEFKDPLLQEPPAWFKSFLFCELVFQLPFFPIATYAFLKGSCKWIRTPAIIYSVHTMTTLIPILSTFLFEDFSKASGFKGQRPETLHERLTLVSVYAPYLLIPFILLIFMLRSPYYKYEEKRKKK
T37 sequence (Q99720 whole entry): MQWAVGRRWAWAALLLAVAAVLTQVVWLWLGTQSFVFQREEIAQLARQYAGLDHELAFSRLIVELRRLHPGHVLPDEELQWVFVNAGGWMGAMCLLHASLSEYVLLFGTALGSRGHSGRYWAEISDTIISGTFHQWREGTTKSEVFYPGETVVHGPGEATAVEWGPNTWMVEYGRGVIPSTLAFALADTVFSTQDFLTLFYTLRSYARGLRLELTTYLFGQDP
T25 sequence (P37288 whole entry): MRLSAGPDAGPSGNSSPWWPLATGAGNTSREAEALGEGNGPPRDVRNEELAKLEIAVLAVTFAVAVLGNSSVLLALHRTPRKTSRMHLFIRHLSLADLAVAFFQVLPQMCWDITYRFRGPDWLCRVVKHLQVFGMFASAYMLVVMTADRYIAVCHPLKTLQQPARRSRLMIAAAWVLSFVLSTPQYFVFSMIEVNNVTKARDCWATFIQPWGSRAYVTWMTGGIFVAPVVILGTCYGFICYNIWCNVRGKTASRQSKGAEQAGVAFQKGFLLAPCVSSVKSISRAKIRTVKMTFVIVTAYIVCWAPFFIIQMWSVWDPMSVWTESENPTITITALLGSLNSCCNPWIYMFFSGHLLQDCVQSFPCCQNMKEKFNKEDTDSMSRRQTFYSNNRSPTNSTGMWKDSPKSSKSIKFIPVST
T29 sequence (P04150 whole entry): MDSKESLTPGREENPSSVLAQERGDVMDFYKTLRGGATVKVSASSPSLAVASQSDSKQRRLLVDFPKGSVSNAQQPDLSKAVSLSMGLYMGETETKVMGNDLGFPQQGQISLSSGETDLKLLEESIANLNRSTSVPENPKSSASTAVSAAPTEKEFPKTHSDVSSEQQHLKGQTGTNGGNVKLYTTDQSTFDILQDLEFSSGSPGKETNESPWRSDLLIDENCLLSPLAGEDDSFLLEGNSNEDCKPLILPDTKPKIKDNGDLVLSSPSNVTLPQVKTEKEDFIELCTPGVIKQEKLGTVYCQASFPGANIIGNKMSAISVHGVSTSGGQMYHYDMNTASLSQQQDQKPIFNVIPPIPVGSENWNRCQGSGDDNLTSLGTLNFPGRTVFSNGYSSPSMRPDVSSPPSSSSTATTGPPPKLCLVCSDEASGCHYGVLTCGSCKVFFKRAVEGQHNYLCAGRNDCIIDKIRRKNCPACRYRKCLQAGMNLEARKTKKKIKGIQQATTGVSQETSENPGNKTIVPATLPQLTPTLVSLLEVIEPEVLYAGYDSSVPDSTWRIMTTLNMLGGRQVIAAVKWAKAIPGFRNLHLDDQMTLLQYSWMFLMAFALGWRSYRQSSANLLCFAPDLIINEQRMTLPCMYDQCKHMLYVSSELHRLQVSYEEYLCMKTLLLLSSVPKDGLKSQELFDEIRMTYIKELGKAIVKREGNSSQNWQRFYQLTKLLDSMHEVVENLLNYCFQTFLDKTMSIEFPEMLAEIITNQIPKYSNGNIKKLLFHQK
T24 sequence (P21918 whole entry): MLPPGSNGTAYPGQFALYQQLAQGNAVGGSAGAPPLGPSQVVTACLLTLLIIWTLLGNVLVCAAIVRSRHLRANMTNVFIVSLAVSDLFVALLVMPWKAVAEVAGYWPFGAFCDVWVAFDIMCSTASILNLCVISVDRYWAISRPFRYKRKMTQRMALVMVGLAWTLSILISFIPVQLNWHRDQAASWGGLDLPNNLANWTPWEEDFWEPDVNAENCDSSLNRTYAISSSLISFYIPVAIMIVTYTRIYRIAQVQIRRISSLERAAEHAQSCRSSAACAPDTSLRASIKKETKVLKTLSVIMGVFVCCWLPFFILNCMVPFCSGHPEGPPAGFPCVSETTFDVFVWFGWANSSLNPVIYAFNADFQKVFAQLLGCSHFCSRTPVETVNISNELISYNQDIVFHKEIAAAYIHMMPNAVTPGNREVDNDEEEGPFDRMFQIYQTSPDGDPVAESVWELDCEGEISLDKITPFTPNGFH
T10 sequence (P48039 whole entry): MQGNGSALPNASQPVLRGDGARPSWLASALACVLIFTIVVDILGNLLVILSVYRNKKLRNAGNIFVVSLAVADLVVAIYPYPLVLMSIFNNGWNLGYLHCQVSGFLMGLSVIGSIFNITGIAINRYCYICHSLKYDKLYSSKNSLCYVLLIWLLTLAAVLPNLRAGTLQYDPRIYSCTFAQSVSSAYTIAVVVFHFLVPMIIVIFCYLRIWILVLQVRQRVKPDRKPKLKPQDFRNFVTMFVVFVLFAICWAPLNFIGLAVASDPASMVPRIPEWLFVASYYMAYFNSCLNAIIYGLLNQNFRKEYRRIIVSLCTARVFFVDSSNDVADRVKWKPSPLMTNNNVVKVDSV
T28 sequence (P21728 whole entry): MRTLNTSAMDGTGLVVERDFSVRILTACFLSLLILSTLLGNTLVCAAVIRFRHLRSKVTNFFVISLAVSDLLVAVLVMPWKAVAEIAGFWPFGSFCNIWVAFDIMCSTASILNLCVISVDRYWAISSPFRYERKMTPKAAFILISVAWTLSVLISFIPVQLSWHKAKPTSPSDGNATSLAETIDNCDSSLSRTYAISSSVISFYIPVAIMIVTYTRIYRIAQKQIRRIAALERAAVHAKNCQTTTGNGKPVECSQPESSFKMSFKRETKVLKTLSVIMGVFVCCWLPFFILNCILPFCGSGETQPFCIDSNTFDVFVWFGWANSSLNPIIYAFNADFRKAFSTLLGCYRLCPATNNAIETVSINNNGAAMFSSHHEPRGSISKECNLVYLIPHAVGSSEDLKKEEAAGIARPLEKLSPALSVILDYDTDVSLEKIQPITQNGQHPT
T6 sequence (P29274 whole entry): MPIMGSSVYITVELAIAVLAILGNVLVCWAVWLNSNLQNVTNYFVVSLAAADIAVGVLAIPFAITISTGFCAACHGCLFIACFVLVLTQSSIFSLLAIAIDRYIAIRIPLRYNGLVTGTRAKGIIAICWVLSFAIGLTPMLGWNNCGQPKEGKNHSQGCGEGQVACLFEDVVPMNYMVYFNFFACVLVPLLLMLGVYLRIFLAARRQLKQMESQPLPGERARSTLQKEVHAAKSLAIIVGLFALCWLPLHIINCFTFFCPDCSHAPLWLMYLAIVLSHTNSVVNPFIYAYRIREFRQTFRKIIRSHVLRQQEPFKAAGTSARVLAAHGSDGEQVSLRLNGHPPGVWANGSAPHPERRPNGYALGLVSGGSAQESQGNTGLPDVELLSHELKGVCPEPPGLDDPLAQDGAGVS
T1 sequence (P20309 whole entry): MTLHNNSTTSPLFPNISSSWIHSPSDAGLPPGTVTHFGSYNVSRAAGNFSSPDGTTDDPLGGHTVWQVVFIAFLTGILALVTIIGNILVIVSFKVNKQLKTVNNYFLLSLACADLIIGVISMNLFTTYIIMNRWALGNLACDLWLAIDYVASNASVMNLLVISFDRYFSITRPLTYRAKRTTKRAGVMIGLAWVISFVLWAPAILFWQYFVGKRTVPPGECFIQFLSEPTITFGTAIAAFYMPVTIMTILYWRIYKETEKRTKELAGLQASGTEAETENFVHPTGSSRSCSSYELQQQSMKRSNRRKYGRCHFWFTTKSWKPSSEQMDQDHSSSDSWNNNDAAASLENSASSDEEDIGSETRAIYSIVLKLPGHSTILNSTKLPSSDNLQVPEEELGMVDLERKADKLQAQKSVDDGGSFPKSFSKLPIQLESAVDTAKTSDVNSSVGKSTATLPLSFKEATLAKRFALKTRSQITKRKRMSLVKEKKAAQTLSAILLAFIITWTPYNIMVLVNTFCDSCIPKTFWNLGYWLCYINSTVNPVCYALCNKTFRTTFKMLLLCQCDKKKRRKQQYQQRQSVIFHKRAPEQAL
T22 sequence (P25025 whole entry): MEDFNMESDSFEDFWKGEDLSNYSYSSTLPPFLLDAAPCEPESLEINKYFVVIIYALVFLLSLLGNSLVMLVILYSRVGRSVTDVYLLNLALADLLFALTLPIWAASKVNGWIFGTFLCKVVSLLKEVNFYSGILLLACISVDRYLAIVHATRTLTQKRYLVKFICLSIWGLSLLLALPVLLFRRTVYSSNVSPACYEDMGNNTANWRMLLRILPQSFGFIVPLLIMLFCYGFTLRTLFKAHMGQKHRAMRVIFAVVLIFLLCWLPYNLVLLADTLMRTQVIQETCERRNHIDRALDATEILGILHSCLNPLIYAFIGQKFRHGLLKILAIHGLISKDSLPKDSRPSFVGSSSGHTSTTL
T26 sequence (P50406 whole entry): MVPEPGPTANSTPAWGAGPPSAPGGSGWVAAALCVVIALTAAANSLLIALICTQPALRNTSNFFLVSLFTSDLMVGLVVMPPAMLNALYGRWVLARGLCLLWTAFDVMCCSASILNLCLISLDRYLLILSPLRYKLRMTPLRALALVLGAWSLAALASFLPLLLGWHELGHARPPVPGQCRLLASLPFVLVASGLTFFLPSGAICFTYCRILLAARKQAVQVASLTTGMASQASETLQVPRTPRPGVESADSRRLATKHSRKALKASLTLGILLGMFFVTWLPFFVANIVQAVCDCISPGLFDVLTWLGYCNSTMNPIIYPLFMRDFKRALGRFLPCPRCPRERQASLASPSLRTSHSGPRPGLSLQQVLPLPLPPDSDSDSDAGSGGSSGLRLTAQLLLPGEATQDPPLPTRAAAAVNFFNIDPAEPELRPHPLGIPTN

Take `CCC(CO)NCCOc1c(C)cccc1Cl` (centres unmarked) [Compound 4, R,S-2-((2-(2-chloro-6-methylphenoxy)ethyl)amino)butan-1-ol]: the “% of control specific binding” value on M3 is listed as 63.5%; on H1 it was 58.9%; on CGRP, 119.0%; on Y1, 122.3%; on NK3 it was 91.8%; at A2A, 71.7%. Further, the “% of control specific binding” value at Y2 is 126.5%; at CCK2 (CCKB), 107.4%; on NOP (ORL1) it was 95.5%; at MT1 (ML1A), 55.1%; on GAL2, 111.9%; on AT2, 108.2%. Further, the “% of control specific binding” value at 5-HT1B was determined as 79.7%; at μ (MOP) it was 50.1%; at NK1 it was 82.1%; on CCK1 (CCKA), 99.8%; on 5-HT5a it was 52.8%; at ETB, 134.4%. Besides, the “% of control specific binding” value at 5-HT3 was found to be 76.2%; in the test with PDGF, 127.9%; at AT1, 131.2%; on IP (PGI2) it was 97.2%; at CXCR2 (IL-8B), 112.2%; on A3, 115.1%. Moreover, the “% of control specific binding” value in the test on sst (non-selective) was 75.5%; on D5, 54.4%; at V1a, 99.8%; at 5-HT6 it was 101.6%; at PPARγ it was 92.3%; at D1, 58.6%. Moreover, the “% of control specific binding” value was 111.7% on GR; 88.7% on NK2; 100.7% on CCR1; 58.4% at M2; 126.0% on CB1; 128.1% at NTS1 (NT1). Besides, the “% of control specific binding” value in test [1] came out at 55.0%.
With `CCC(CO)NCCOc1c(C)cccc1Cl` (centres unmarked) [KM-408, R,S-2-((2-(2-chloro-6-methylphenoxy)ethyl)amino)butan-1-ol hydrochloride], the inhibition at 10 µM at Sigma 2 (setting [2]) was 94.8%; at Sigma 1 (setting [2]), 95%. Further, the remaining activity at 10 µM at Sigma 2 (setting [3]) is 94.8%; on Sigma 1 (setting [3]), 95%.
